Earlier results in patent US20240423197A1, “KIT FOR PREPARING HERBICIDAL APPLICATION MIXTURES” (BAYER CROPSCIENCE LP, priority 2021, published 2024).

Conditions: known HLB value predetermined based on estimation by Griffin's method

Row | HLB | Substance
1 | 15 | Polysorbate 80 (polyoxyethylene sorbitan monooleate) [Tween® 80]
2 | 4.3 | Sorbitan monooleate [Span® 80]
